Measured values published in publication PMC7430679 (RNA, 2020).

Legend:
T. maritima TsaD = T. maritima TsaD (Thermotoga maritima, UniProt Q9WXZ2); experiment: STD NMR; type: binding; settings: 20 µM protein, 1 mM amino acid, 10 mM potassium phosphate pH 6.8, 100 mM NaCl, 99% D2O, 37°C
E. coli TsaD = E. coli TsaD (Escherichia coli, UniProt P05852); experiment: STD NMR; type: binding; settings: 20 µM protein, 1 mM amino acid, 10 mM potassium phosphate pH 6.8, 100 mM NaCl, 99% D2O, 37°C
E. coli TsaD, sequence (P05852 whole entry): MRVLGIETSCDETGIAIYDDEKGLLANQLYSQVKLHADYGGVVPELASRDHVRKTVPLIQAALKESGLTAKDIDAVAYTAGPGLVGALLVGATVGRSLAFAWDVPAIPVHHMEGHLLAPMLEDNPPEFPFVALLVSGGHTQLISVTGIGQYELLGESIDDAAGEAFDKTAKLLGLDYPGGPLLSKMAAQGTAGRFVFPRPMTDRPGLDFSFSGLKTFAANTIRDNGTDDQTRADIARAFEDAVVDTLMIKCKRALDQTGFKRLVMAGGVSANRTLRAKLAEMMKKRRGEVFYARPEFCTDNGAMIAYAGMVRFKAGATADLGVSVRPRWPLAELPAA

T. maritima TsaD, sequence (Q9WXZ2 whole entry): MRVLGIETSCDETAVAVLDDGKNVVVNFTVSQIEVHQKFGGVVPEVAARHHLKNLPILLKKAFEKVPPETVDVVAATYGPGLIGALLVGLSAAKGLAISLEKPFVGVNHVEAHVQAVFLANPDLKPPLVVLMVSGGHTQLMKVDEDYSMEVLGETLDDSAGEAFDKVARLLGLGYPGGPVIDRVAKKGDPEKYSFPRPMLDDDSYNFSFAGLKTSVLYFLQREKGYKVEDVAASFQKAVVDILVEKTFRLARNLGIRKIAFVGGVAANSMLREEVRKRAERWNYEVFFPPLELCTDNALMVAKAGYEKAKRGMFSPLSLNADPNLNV

| SMILES | STD NMR (T. maritima TsaD; racemate tested) | STD NMR (E. coli TsaD) | STD NMR (T. maritima TsaD) |
| --- | --- | --- | --- |
| CCC(O)C(N)C(=O)O (racemic) [hnV, D,L-3-hydroxynorvaline] | interaction with hydroxynorvaline, distinct signals due to interactions with the Hα and Hβ protons |  |  |
| C[C@@H](O)[C@H](N)C(=O)O [Thr, L-threonine] |  | E. coli TsaD shows a similar pattern of interaction with threonine | clear STD NMR signal for its interaction with the Hβ proton of threonine |
